In ChEMBL document CHEMBL3232809, “Synthesis, antibiotic activity and structure-activity relationship study of some 3-enaminetetramic acids” (2014):

tested on: Pseudomonas aeruginosa; assay: Antimicrobial activity against Pseudomonas aeruginosa ATCC 27853; type: functional

SMILES | MIC [µg/mL]
CCCCCC/C(=C1/C(=O)N2[C@@H](C(C)(C)C)OC[C@]2(C(=O)OC)C1=O)N1CCCCC1 | > 32
CCOC(=O)[C@]12CO[C@H](C(C)(C)C)N1C(=O)/C(=C(/CC13CC4CC(C)(CC(C)(C4)C1)C3)NC(C)CCCN(CC)CC)C2=O (stereo not given in full) | > 32
CCOC(=O)[C@]12CO[C@H](C(C)(C)C)N1C(=O)/C(=C(/CC13CC4CC(CC(C4)C1)C3)NCC(C)(C)CN(C)C)C2=O | > 32
COC(=O)[C@]12CO[C@H](C(C)(C)C)N1C(=O)/C(=C(/CCCOc1ccccc1)NCCCOC(C)C)C2=O | > 32

tested on: Escherichia coli; assay: Antimicrobial activity against Escherichia coli ATCC 25922; type: functional

SMILES | MIC [µg/mL]
CCCCCC/C(=C1/C(=O)N2[C@@H](C(C)(C)C)OC[C@]2(C(=O)OC)C1=O)N1CCCCC1 | > 32
CCOC(=O)[C@]12CO[C@H](C(C)(C)C)N1C(=O)/C(=C(/CC13CC4CC(C)(CC(C)(C4)C1)C3)NC(C)CCCN(CC)CC)C2=O (stereo not given in full) | > 32
CCOC(=O)[C@]12CO[C@H](C(C)(C)C)N1C(=O)/C(=C(/CC13CC4CC(CC(C4)C1)C3)NCC(C)(C)CN(C)C)C2=O | > 32
COC(=O)[C@]12CO[C@H](C(C)(C)C)N1C(=O)/C(=C(/CCCOc1ccccc1)NCCCOC(C)C)C2=O | > 32

tested on: Escherichia coli; assay: Antimicrobial activity against Escherichia coli 49; type: functional

SMILES | MIC [µg/mL]
CCCCCC/C(=C1/C(=O)N2[C@@H](C(C)(C)C)OC[C@]2(C(=O)OC)C1=O)N1CCCCC1 | > 32
CCOC(=O)[C@]12CO[C@H](C(C)(C)C)N1C(=O)/C(=C(/CC13CC4CC(C)(CC(C)(C4)C1)C3)NC(C)CCCN(CC)CC)C2=O (stereo not given in full) | > 32
CCOC(=O)[C@]12CO[C@H](C(C)(C)C)N1C(=O)/C(=C(/CC13CC4CC(CC(C4)C1)C3)NCC(C)(C)CN(C)C)C2=O | > 32
COC(=O)[C@]12CO[C@H](C(C)(C)C)N1C(=O)/C(=C(/CCCOc1ccccc1)NCCCOC(C)C)C2=O | > 32

tested on: Staphylococcus aureus; assay: Antimicrobial activity against vancomycin-susceptible Staphylococcus aureus ATCC 25923; type: functional

SMILES | MIC [µg/mL]
CCCCCC/C(=C1/C(=O)N2[C@@H](C(C)(C)C)OC[C@]2(C(=O)OC)C1=O)N1CCCCC1 | > 32
CCOC(=O)[C@]12CO[C@H](C(C)(C)C)N1C(=O)/C(=C(/CC13CC4CC(C)(CC(C)(C4)C1)C3)NC(C)CCCN(CC)CC)C2=O (stereo not given in full) | > 32
CCOC(=O)[C@]12CO[C@H](C(C)(C)C)N1C(=O)/C(=C(/CC13CC4CC(CC(C4)C1)C3)NCC(C)(C)CN(C)C)C2=O | > 32
COC(=O)[C@]12CO[C@H](C(C)(C)C)N1C(=O)/C(=C(/CCCOc1ccccc1)NCCCOC(C)C)C2=O | > 32

tested on: Streptococcus pneumoniae; assay: Antimicrobial activity against penicillin- and erythromycin-resistant Streptococcus pneumoniae in presence of 2.5% horse blood; type: functional

SMILES | MIC [µg/mL]
CCCCCC/C(=C1/C(=O)N2[C@@H](C(C)(C)C)OC[C@]2(C(=O)OC)C1=O)N1CCCCC1 | > 32
CCOC(=O)[C@]12CO[C@H](C(C)(C)C)N1C(=O)/C(=C(/CC13CC4CC(C)(CC(C)(C4)C1)C3)NC(C)CCCN(CC)CC)C2=O (stereo not given in full) | > 32
CCOC(=O)[C@]12CO[C@H](C(C)(C)C)N1C(=O)/C(=C(/CC13CC4CC(CC(C4)C1)C3)NCC(C)(C)CN(C)C)C2=O | > 32
COC(=O)[C@]12CO[C@H](C(C)(C)C)N1C(=O)/C(=C(/CCCOc1ccccc1)NCCCOC(C)C)C2=O | > 32

tested on: Staphylococcus aureus; assay: Antimicrobial activity against Staphylococcus aureus Oxford; type: functional

SMILES | MIC [µg/mL]
CCCCCC/C(=C1/C(=O)N2[C@@H](C(C)(C)C)OC[C@]2(C(=O)OC)C1=O)N1CCCCC1 | > 32
CCOC(=O)[C@]12CO[C@H](C(C)(C)C)N1C(=O)/C(=C(/CC13CC4CC(C)(CC(C)(C4)C1)C3)NC(C)CCCN(CC)CC)C2=O (stereo not given in full) | > 32
CCOC(=O)[C@]12CO[C@H](C(C)(C)C)N1C(=O)/C(=C(/CC13CC4CC(CC(C4)C1)C3)NCC(C)(C)CN(C)C)C2=O | > 32
COC(=O)[C@]12CO[C@H](C(C)(C)C)N1C(=O)/C(=C(/CCCOc1ccccc1)NCCCOC(C)C)C2=O | > 32

tested on: Haemophilus influenzae; assay: Antimicrobial activity against LS2 Efflux knock-out Haemophilus influenzae; type: functional

SMILES | MIC [µg/mL]
CCCCCC/C(=C1/C(=O)N2[C@@H](C(C)(C)C)OC[C@]2(C(=O)OC)C1=O)N1CCCCC1 | > 32
CCOC(=O)[C@]12CO[C@H](C(C)(C)C)N1C(=O)/C(=C(/CC13CC4CC(C)(CC(C)(C4)C1)C3)NC(C)CCCN(CC)CC)C2=O (stereo not given in full) | > 32
CCOC(=O)[C@]12CO[C@H](C(C)(C)C)N1C(=O)/C(=C(/CC13CC4CC(CC(C4)C1)C3)NCC(C)(C)CN(C)C)C2=O | > 32
COC(=O)[C@]12CO[C@H](C(C)(C)C)N1C(=O)/C(=C(/CCCOc1ccccc1)NCCCOC(C)C)C2=O | > 32

tested on: Streptococcus pneumoniae; assay: Antimicrobial activity against penicillin- and erythromycin-resistant Streptococcus pneumoniae; type: functional

SMILES | MIC [µg/mL]
CCCCCC/C(=C1/C(=O)N2[C@@H](C(C)(C)C)OC[C@]2(C(=O)OC)C1=O)N1CCCCC1 | > 32
CCOC(=O)[C@]12CO[C@H](C(C)(C)C)N1C(=O)/C(=C(/CC13CC4CC(C)(CC(C)(C4)C1)C3)NC(C)CCCN(CC)CC)C2=O (stereo not given in full) | > 32
CCOC(=O)[C@]12CO[C@H](C(C)(C)C)N1C(=O)/C(=C(/CC13CC4CC(CC(C4)C1)C3)NCC(C)(C)CN(C)C)C2=O | > 32
COC(=O)[C@]12CO[C@H](C(C)(C)C)N1C(=O)/C(=C(/CCCOc1ccccc1)NCCCOC(C)C)C2=O | > 32

tested on: Enterococcus faecium; assay: Antimicrobial activity against vancomycin-resistant Enterococcus faecium; type: functional

SMILES | MIC [µg/mL]
CCCCCC/C(=C1/C(=O)N2[C@@H](C(C)(C)C)OC[C@]2(C(=O)OC)C1=O)N1CCCCC1 | > 32
CCOC(=O)[C@]12CO[C@H](C(C)(C)C)N1C(=O)/C(=C(/CC13CC4CC(C)(CC(C)(C4)C1)C3)NC(C)CCCN(CC)CC)C2=O (stereo not given in full) | > 32
CCOC(=O)[C@]12CO[C@H](C(C)(C)C)N1C(=O)/C(=C(/CC13CC4CC(CC(C4)C1)C3)NCC(C)(C)CN(C)C)C2=O | > 32
COC(=O)[C@]12CO[C@H](C(C)(C)C)N1C(=O)/C(=C(/CCCOc1ccccc1)NCCCOC(C)C)C2=O | > 32

tested on: Staphylococcus aureus; assay: Antimicrobial activity against methicillin-sensitive Staphylococcus aureus ATCC 13709; type: functional

SMILES | MIC [µg/mL]
CCCCCC/C(=C1/C(=O)N2[C@@H](C(C)(C)C)OC[C@]2(C(=O)OC)C1=O)N1CCCCC1 | > 32
CCOC(=O)[C@]12CO[C@H](C(C)(C)C)N1C(=O)/C(=C(/CC13CC4CC(C)(CC(C)(C4)C1)C3)NC(C)CCCN(CC)CC)C2=O (stereo not given in full) | > 32
CCOC(=O)[C@]12CO[C@H](C(C)(C)C)N1C(=O)/C(=C(/CC13CC4CC(CC(C4)C1)C3)NCC(C)(C)CN(C)C)C2=O | > 32
COC(=O)[C@]12CO[C@H](C(C)(C)C)N1C(=O)/C(=C(/CCCOc1ccccc1)NCCCOC(C)C)C2=O | > 32

tested on: Enterococcus faecalis; assay: Antimicrobial activity against vancomycin-susceptible Enterococcus faecalis ATCC 29212; type: functional

SMILES | MIC [µg/mL]
CCCCCC/C(=C1/C(=O)N2[C@@H](C(C)(C)C)OC[C@]2(C(=O)OC)C1=O)N1CCCCC1 | > 32
CCOC(=O)[C@]12CO[C@H](C(C)(C)C)N1C(=O)/C(=C(/CC13CC4CC(C)(CC(C)(C4)C1)C3)NC(C)CCCN(CC)CC)C2=O (stereo not given in full) | > 32
CCOC(=O)[C@]12CO[C@H](C(C)(C)C)N1C(=O)/C(=C(/CC13CC4CC(CC(C4)C1)C3)NCC(C)(C)CN(C)C)C2=O | > 32
COC(=O)[C@]12CO[C@H](C(C)(C)C)N1C(=O)/C(=C(/CCCOc1ccccc1)NCCCOC(C)C)C2=O | > 32

tested on: Staphylococcus aureus; assay: Antimicrobial activity against methicillin-resistant Staphylococcus aureus; type: functional

SMILES | MIC [µg/mL]
CCCCCC/C(=C1/C(=O)N2[C@@H](C(C)(C)C)OC[C@]2(C(=O)OC)C1=O)N1CCCCC1 | > 32
CCOC(=O)[C@]12CO[C@H](C(C)(C)C)N1C(=O)/C(=C(/CC13CC4CC(C)(CC(C)(C4)C1)C3)NC(C)CCCN(CC)CC)C2=O (stereo not given in full) | > 32
CCOC(=O)[C@]12CO[C@H](C(C)(C)C)N1C(=O)/C(=C(/CC13CC4CC(CC(C4)C1)C3)NCC(C)(C)CN(C)C)C2=O | > 32
COC(=O)[C@]12CO[C@H](C(C)(C)C)N1C(=O)/C(=C(/CCCOc1ccccc1)NCCCOC(C)C)C2=O | > 32

tested on: Streptococcus pneumoniae; assay: Antimicrobial activity against erythromycin-susceptible Streptococcus pneumoniae ATCC 49619; type: functional

SMILES | MIC [µg/mL]
CCCCCC/C(=C1/C(=O)N2[C@@H](C(C)(C)C)OC[C@]2(C(=O)OC)C1=O)N1CCCCC1 | > 32
CCOC(=O)[C@]12CO[C@H](C(C)(C)C)N1C(=O)/C(=C(/CC13CC4CC(C)(CC(C)(C4)C1)C3)NC(C)CCCN(CC)CC)C2=O (stereo not given in full) | > 32
CCOC(=O)[C@]12CO[C@H](C(C)(C)C)N1C(=O)/C(=C(/CC13CC4CC(CC(C4)C1)C3)NCC(C)(C)CN(C)C)C2=O | > 32
COC(=O)[C@]12CO[C@H](C(C)(C)C)N1C(=O)/C(=C(/CCCOc1ccccc1)NCCCOC(C)C)C2=O | > 32

tested on: Escherichia coli; assay: Antimicrobial activity against Escherichia coli 50; type: functional

SMILES | MIC [µg/mL]
CCCCCC/C(=C1/C(=O)N2[C@@H](C(C)(C)C)OC[C@]2(C(=O)OC)C1=O)N1CCCCC1 | > 32
CCOC(=O)[C@]12CO[C@H](C(C)(C)C)N1C(=O)/C(=C(/CC13CC4CC(C)(CC(C)(C4)C1)C3)NC(C)CCCN(CC)CC)C2=O (stereo not given in full) | > 32
CCOC(=O)[C@]12CO[C@H](C(C)(C)C)N1C(=O)/C(=C(/CC13CC4CC(CC(C4)C1)C3)NCC(C)(C)CN(C)C)C2=O | > 32
COC(=O)[C@]12CO[C@H](C(C)(C)C)N1C(=O)/C(=C(/CCCOc1ccccc1)NCCCOC(C)C)C2=O | > 32

tested on: Haemophilus influenzae; assay: Antimicrobial activity against Haemophilus influenzae ATCC 31517 MMSA; type: functional

SMILES | MIC [µg/mL]
CCCCCC/C(=C1/C(=O)N2[C@@H](C(C)(C)C)OC[C@]2(C(=O)OC)C1=O)N1CCCCC1 | > 32
CCOC(=O)[C@]12CO[C@H](C(C)(C)C)N1C(=O)/C(=C(/CC13CC4CC(C)(CC(C)(C4)C1)C3)NC(C)CCCN(CC)CC)C2=O (stereo not given in full) | > 32
CCOC(=O)[C@]12CO[C@H](C(C)(C)C)N1C(=O)/C(=C(/CC13CC4CC(CC(C4)C1)C3)NCC(C)(C)CN(C)C)C2=O | > 32
COC(=O)[C@]12CO[C@H](C(C)(C)C)N1C(=O)/C(=C(/CCCOc1ccccc1)NCCCOC(C)C)C2=O | > 32
